Results taken from patent US5001123A, “2,5-diaryl tetrahydrofurans and analogs thereof as PAF antagonists” (Merck & Co., Inc., priority 1989, dated 1991).

System: PAF specific receptor binding site, human platelet membranes
Assay: inhibition of the binding of [3H] N-methylcarbamoyl-PAF to human platelet membranes
Settings: trans configuration
Description: The compounds of formula (I) inhibit PAF induced functions in both the cellular and tissue levels by changing the PAF binding to its specific receptor site. The ability of a compound of formula (I) to inhibit the PAF binding to its specific receptor binding site on rabbit or human platelet or PMN plasma membranes was measured by a recently developed assay.
The inhibition of ^3 [H]-PAF or ^3 [H]N-methylcarbamoyl-PAF binding to the human or rabbit platelet or PMN plasma membrane by a PAF antagonist of formula (I) was determined by a method employing isotopic labeling and filtration techniques. Generally, a series of Tris buffered solutions of the selected antagonist at predetermined concentrations were prepared. […] Each washed residue was then suspended in 10 ml scintillation solution (Aquasol 2, New England Nuclear, Conn.) and the radioactivity was counted in a Packard Tri-Carb 460CD Liquid Scintillation System. Defining the counts from a test sample as "Total binding with antagonist"; the counts from the control sample C1, as "Total binding C1 "; and the counts from the control sample C2 as "non specific binding C2 ", the percent inhibition of each test antagonist can be determined by the following equations: [formula] […]

CCCOc1c(OCC(O)CN2CCOCC2)cc([C@@H]2CC[C@@H](c3cnc(OC)c(OC)c3)O2)cc1S(=O)(=O)CC(C)O (stereo partly drawn) [Example 3, trans-2-[3-(2-Hydroxypropyl)sulfonyl-4-n-propoxy-5-(3-1-morpholino-2-hydroxypropoxy)phenyl]-5-[5-(2,3-dimethoxy)pyridyl]tetrahydrofuran]
% inhibition of the binding of [3H] Nmethylcarbamoyl-PAF to human platelet membranes (3 nM): 11%
% inhibition of the binding of [3H] Nmethylcarbamoyl-PAF to human platelet membranes (30 nM): 39%
